The text below walks through data of patent US20260286573A1, “3D PRINTING ELECTROSPINNING SYSTEMS AND METHODS” (Board of Regents, The University of Texas System, priority 2023, published 2026).

The data set can be described thus: Thermogravimetric analysis (TGA), thermal stability. Format: physicochemical. As to conditions: for decrease in mass, initial phase of TGA (surface-absorbed water): 10 °C/min, nitrogen. The procedure: Thermogravimetric Analysis (TGA). FIG. 13 provides data showing thermogravimetric analysis (TGA) of raw materials and mixtures according to some examples. In some examples, the thermal properties of the raw materials and physical mixtures may be determined through a Mettler-Toledo TGA/DSC1 analyzer (Mettler-Toledo, Schwerzenbach, Switzerland). Sample raw materials and physical mixtures may be placed in an open ceramic crucible and ramped from 35° C. to 600° C. at a rate of 10° C./min. A furnace may be purged using ultra-purified nitrogen at a flow rate of 50 mL/min.
Thermogravimetric analysis (TGA) was conducted to examine the degradation patterns and thermal stabilities of EPO, S100, CUR, RTV, and Xspin bi-fibers (FIG. 13). TGA measures the change in sample mass as a function of temperature using a thermobalance.

With `COc1cc(/C=C/C(=O)CC(=O)/C=C/c2ccc(O)c(OC)c2)ccc1O` [CUR, Curcumin], the “decrease in mass, initial phase of TGA (surface-absorbed water)” value is “no losses”. The “weight loss, second phase of TGA” value (between 245 and 420° C.) amounted to 60%.

As for `CC(C)c1nc(CN(C)C(=O)N[C@H](C(=O)N[C@@H](Cc2ccccc2)C[C@H](O)[C@H](Cc2ccccc2)NC(=O)OCc2cncs2)C(C)C)cs1` [RTV, Ritonavir], the “decrease in mass, initial phase of TGA (surface-absorbed water)” value is “no losses”. Further, the “weight loss, second phase of TGA” value (between 20° and 250° C.) stood at 40%. For the same molecule, the “second weight loss (TGA)” value (between 30° and 395° C.) is recorded as ~ 50%.
